One compound from US20240228443A1, “NOVEL MANUFACTURING METHOD OF D[…] PRECURSORS THEREOF” (GlaxoSmithKline Intellectual Property (No.2) Limited, priority 2021, published 2024) can be followed below.

Values after ≈ are worked out from the molar mass of the structure shown. Some results are limits rather than exact numbers.

This data set in a line: Solubility by saturation of the solvent, filtration and determination of concentration in the supernatant. The data set is classed as physicochemical. The note with it: thermodynamic from solid. How it is done:
The solubility of 5-acetyl-1,3-dicyclohexylpyrimidine-2,4,6(1H,3H,5H)-trione was measured in 29.5% v/v acetic anhydride-acetic acid (a mimic for the solvent composition at the end of Stage 1), acetic acid and water. The solubility was measured by saturation of the solvent with the component, filtration and determination of the component concentration in the supernatant.

For orientation: solubility means the concentration that dissolves in the medium under given conditions. For `CC(=O)C1C(=O)N(C2CCCCC2)C(=O)N(C2CCCCC2)C1=O` [5-acetyl-1,3-dicyclohexylpyrimidine-2,4,6(1H,3H,5H)-trione], the solubility by setting is: (organic solvent or mixture, in 29.5% v/v acetic anhydride-acetic acid at 15° C.) 43.7 mg/mL (≈ 131 mM); (organic solvent or mixture, in acetic acid at 20° C.) 62.3 mg/mL (≈ 186 mM); (in water at 25° C.) below 0.1 mg/mL.
